Experimental data from ChEMBL document CHEMBL4715734, “Discovery of the Potent and Selective M1 PAM-Agonist N-[(3R,4S)-3-Hydroxytetrahydro-2H-pyran-4-yl]-5-methyl-4-[4-(1,3-thiazol-4-yl)benzyl]pyridine-2-carboxamide (PF-06767832): Evaluation of Efficacy and Cholinergic Side Effects” (J Med Chem, 2016).

How the values were obtained:
[1] = Permeability of compound in MDCKII-LE cells; assay type: ADME, cell-based, Canis lupus familiaris; conditions: dog, MDCK; read-out: permeability
[2] = Intrinsic clearance in human liver microsome; assay type: ADME; conditions: liver microsomes, read-out: CLH
[3] = tested on: MDR1 (P-gp); test: Efflux ratio of permeability across basolateral to apical side over apical to basolateral side in dog MDCK-MDR1 cells; assay type: ADME, cell-based, Canis lupus familiaris
[4] = biological target: T1, Muscarinic acetylcholine receptor M1 (Homo sapiens, UniProt P11229); test: Positive allosteric modulation of human muscarinic M1 receptor stably expressed in CHO cells assessed as increase in Ach-induced intracellular calcium level preincubated for 10 mins followed by addition of Ach at EC20 concentration by Fluo-8AM dye based FLIPR TETRA method; assay type: functional, cell-based
T1 sequence (P11229 whole entry): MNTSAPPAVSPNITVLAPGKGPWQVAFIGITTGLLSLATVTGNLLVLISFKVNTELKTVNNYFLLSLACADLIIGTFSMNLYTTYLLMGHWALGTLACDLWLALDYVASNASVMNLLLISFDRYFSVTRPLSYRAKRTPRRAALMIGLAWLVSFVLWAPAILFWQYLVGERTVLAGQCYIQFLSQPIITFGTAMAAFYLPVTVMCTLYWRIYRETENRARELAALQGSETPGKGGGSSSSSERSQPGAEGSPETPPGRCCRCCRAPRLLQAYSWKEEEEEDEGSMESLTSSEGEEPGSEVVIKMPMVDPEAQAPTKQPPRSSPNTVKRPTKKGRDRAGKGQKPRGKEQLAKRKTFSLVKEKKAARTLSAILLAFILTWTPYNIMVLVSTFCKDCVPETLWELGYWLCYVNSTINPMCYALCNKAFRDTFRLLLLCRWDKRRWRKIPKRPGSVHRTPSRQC

[5] = Ratio of AUC in mouse brain to plasma; assay type: ADME, cell-free; conditions: brain and plasma, read-out: Ratio AUC
[6] = Fraction unbound in C57BL/6 mouse plasma; assay type: ADME, cell-free
[7] = Fraction unbound in rat brain; assay type: ADME, cell-free
[8] = Ratio of fAUC in C57BL/6 mouse brain to plasma; assay type: ADME, cell-free; conditions: brain and plasma, read-out: Ratio AUC
[9] = Ratio of AUC in C57BL/6 mouse brain to plasma at 1 mg/kg, sc; assay type: ADME, organism-based; conditions: brain and plasma, read-out: Ratio AUC

Compound | Papp [1] [×10⁻⁶ cm/s] | CLint scaled [2] [mL/min/kg] | efflux ratio [3] | EC50 [4] [nM] | Kp [5] | Fu [6] [%] | Fu [7] [%] | Kp uu [8] | Kp [9]
O=C(N[C@H]1CCOC[C@@H]1O)c1cc(Cc2ccc(-n3cccn3)cc2)ccn1 | 24 | < 8 | 1.8 | > 9000 |  |  |  |  | 
Cc1cnc(C(=O)N[C@H]2CCCC[C@@H]2O)cc1Cc1ccc(-n2cccn2)cc1 (single isomer, unassigned) | 19 | 20 | 1.5 |  |  |  |  |  | 
Cc1ccc(C(=O)N[C@H]2CCOC[C@@H]2O)cc1Cc1ccc(-n2cccn2)cc1 | 16 | < 8 | 2.2 | 208 |  |  |  |  | 
Cc1ncc(C(=O)N[C@H]2CCOC[C@@H]2O)cc1Cc1ccc(-n2cccn2)cc1 | 8 | < 8 | 6.3 | 392 |  |  |  |  | 
Cc1cnc(C(=O)N[C@H]2CCOC[C@@H]2O)cc1Cc1ccc(-n2cccn2)cc1 | 21 | < 8 | 1.4 |  |  | 7.4 | 9 | 0.23 | 0.2
Cc1c(Cc2ccc(-n3cccn3)cc2)cc(C(=O)N[C@H]2CCCC[C@@H]2O)c(=O)n1C | 23 | 20 | 2.7 | 29 | 0.05 |  |  |  | 
Cc1cc(N)c(C(=O)N[C@H]2CCOC[C@@H]2O)cc1Cc1ccc(-n2cccn2)cc1 (racemic) | 19 | 23 | 1.9 | > 9000 |  |  |  |  | 
Cc1c(Cc2ccc(-n3cccn3)cc2)cc(C(=O)N[C@H]2CCOC[C@@H]2O)c(=O)n1C | 20 | < 8 | > 5.3 | 20 |  |  |  |  | 

Continued, values first:

Papp [1] [×10⁻⁶ cm/s] | CLint scaled [2] [mL/min/kg] | efflux ratio [3] | EC50 [4] [nM] | Kp [5] | Fu [6] [%] | Fu [7] [%] | Kp uu [8] | Kp [9] | Compound
23 | 22 | 2.2 | 1690 |  |  |  |  |  | CO[C@@H]1CCN(c2ccc(Cc3cc(C(=O)N[C@H]4CCCC[C@@H]4O)c(=O)n(C)c3C)cc2)C1
32 | < 8 | 1.2 |  |  |  |  |  |  | Cc1cnc(C(=O)N[C@H]2CCOC[C@@H]2O)cc1Cc1ccc(-c2cocn2)cc1
20 | < 10 | 1.5 | 115 |  |  |  |  |  | Cc1cc(F)c(C(=O)N[C@H]2CCOC[C@@H]2O)cc1Cc1ccc(-n2cccn2)cc1
26 | 17 | 2.4 | 38 | 0.03 |  |  |  |  | Cc1c(Cc2ccc(-c3cocn3)cc2)cc(C(=O)N[C@H]2CCCC[C@@H]2O)c(=O)n1C
17 | 26 | 2.4 | 166 |  |  |  |  |  | Cc1c(Cc2ccc(-c3cscn3)cc2)cc(C(=O)N[C@H]2CCCC[C@@H]2O)c(=O)n1C
13 | 13 | 3.1 | 102 |  |  |  |  |  | Cc1c(Cc2ccc(-c3ccn(C)n3)cc2)cc(C(=O)N[C@H]2CCCC[C@@H]2O)c(=O)n1C
